Measured values reported in ChEMBL document CHEMBL5303711, “ECBD screening data for assay EOS300108” (2023).
Calls of active or inactive are those of the source. The rule behind the calls is not given here.

test: Cytotoxicity activity against human HepG2 cells assessed by CellTiter-Glo luminescent cell viability assay.; type: toxicity, cell-based; set-up: assay stage confirmatory assay, source tissue liver; details: HepG2 cells, read-out: IC50 relative

| SMILES | CC50 |
| --- | --- |
| CN1CCC(c2c[nH]c3ccc(NC(=O)c4ccc(F)cc4)cc23)CC1 | 14.2 µM (inactive) |
| O=C(O)c1ccc2c3c1cccc3c(=O)n1c3ccccc3nc21 | 3.3 µM (active) |
| O=C(NC(NC(=S)Nc1ccc(F)c([N+](=O)[O-])c1)C(Cl)(Cl)Cl)C(c1ccccc1)c1ccccc1 (stereo not given) | 6.3 µM (active) |
| Cc1c(C(=O)c2cccc3ccccc23)c2cccc3c2n1[C@H](CN1CCOCC1)CO3 | 3.2 µM (active) |
| COc1cc(/C=C2\CCCN([C@@H](C)c3ccc(F)cc3)C2=O)ccc1-n1cnc(C)c1 | 12.8 µM (active) |
| C=CC(=O)Nc1cccc(Oc2nc(Nc3ccc(N4CCN(C)CC4)cc3OC)ncc2Cl)c1 | 2.2 µM (active) |
| COc1cc(N2CCC(O)CC2)ccc1Nc1cc(Nc2ccccc2S(=O)(=O)C(C)C)c2cc[nH]c2n1 | 12.9 µM (active) |
| O=C(NCCO)c1cccc(-c2cc(Nc3ccc(OC(F)(F)F)cc3)ncn2)c1 | 19.4 µM (inactive) |
| C[C@]12CCC(=O)C=C1CC[C@@H]1[C@@H]2CC[C@]2(C)C(c3cccnc3)=CC[C@@H]12 | 28 µM (inactive) |
| c1ccc(CCCN2CCN(CCOC(c3ccccc3)c3ccccc3)CC2)cc1 | 9.1 µM (active) |
| Cc1ccc2c(c1)C1(CCN(CCc3nc(-c4ccccc4)oc3C)CC1)OC(=O)N2 | 11.2 µM (active) |
| Cc1csc(NC(=O)CSc2ccc(-c3ccccc3)nn2)n1 | 14.7 µM (inactive) |
| Cn1cc(C2=C(c3cn(CCCSC(=N)N)c4ccccc34)C(=O)NC2=O)c2ccccc21 | 1.4 µM (active) |
| O=C1NCCSc2c1sc1ccc(O)cc21 | 1 µM (active) |
| CCOC(=O)c1cnc2ccc(-c3cncc(NS(=O)(=O)c4ccccc4)c3)cn12 | 3.8 µM (active) |
| CNc1nc(-c2ccc3c(N)n[nH]c3c2)cc(N2C[C@@H](C(=O)NC3CCCCC3)CC[C@H]2C)n1 | 50 µM (inactive) |
| O=c1cc(N2CCOCC2)oc2c(-c3cccc4c3sc3ccccc34)cccc12 | 7.1 µM (active) |
| COc1cc(C(=O)N2CCC(N3CCN(C)CC3)CC2)ccc1Nc1ncc2c(n1)N(C)c1ccccc1C(=O)N2C | 4.5 µM (active) |
| COc1cc2c(cc1-c1c(C)noc1C)ncc1[nH]c(=O)n([C@H](C)c3ccccn3)c12 | 1.4 µM (active) |
| COc1ccc2cc(S(=O)(=O)N[C@H](CC(=O)N[C@H](Cc3ccc(CN4[C@H](C)CCC[C@@H]4C)cc3)C(=O)N(C)C(C)C)c3ccc4c(c3)OCO4)ccc2c1 | 4.1 µM (active) |
| CC(C)(Cc1ccc2ccccc2c1)NC[C@@H](O)COc1cccc(Cl)c1C#N | 1.3 µM (active) |
| COc1ccc(N(C(=O)Oc2c(C)cccc2C)c2ccnc(Nc3ccc(N4CCN(C)CC4)cc3)n2)c(OC)c1 | 3.3 µM (active) |

| SMILES | CC50 |
| --- | --- |
| C[C@@H]1CN(CC(=O)Nc2ccc3c(c2)Cc2cccc(-c4cc(=O)cc(N5CCOCC5)o4)c2S3)C[C@H](C)O1 | 17.8 µM (inactive) |
| COc1cc2ncnc(-n3nc(-c4ccccn4)nc3N)c2cc1OC | 1.5 µM (active) |
| Cc1cc(NC(=O)c2cccc(NC(=O)/C=C/CN(C)C)c2)ccc1Nc1nccc(-c2cccnc2)n1 | 3.8 µM (active) |
| Cc1cccc(-c2[nH]c(C(C)(C)C)nc2-c2ccc3c(c2)OCO3)n1 | 2.8 µM (active) |
| CN(C)Cc1cccc(N/C(=C2\C(=O)Nc3cc(C(=O)N(C)C)ccc32)c2ccccc2)c1 | 10 µM (active) |
| O=C(Nc1ccc([N+](=O)[O-])cc1O)Nc1ccccc1Br | 8.9 µM (active) |
| CN1CCN(Cc2ccc(-c3cnc4[nH]cc(-c5ccc6[nH]ccc6c5)c4c3)cc2)CC1 | 1.4 µM (active) |
| N#C/C(=C(/N)Sc1ccc(N)cc1)c1ccccc1C(F)(F)F | 8.6 µM (active) |
| OCCCNc1cc(-c2ccnc(Nc3cccc(Cl)c3)n2)ccn1 | 1.4 µM (active) |
| CC(C)(C)c1ccc(S(=O)(=O)NCc2ccc(C(=O)Nc3cccnc3)cc2)cc1 | 2.6 µM (active) |
| O=C(/C=C/c1ccc2ccccc2n1)c1ccncc1 | 1.1 µM (active) |
| Nc1nc(NCCNc2ncc(-n3ccnc3)c(-c3ccc(Cl)cc3Cl)n2)ccc1[N+](=O)[O-] | 50 µM (inactive) |
| O=C(NCc1cccc(O)c1)Nc1nc(-c2ccncc2)cs1 | 10.7 µM (inactive) |
| COc1ccc(C[C@H](NC(=O)[C@H](C)NC(=O)CN2CCOCC2)C(=O)N[C@@H](Cc2ccccc2)C(=O)[C@@]2(C)CO2)cc1 | 0.5 µM (active) |
| CC(C)(C#N)c1ccc(N2C(=O)OCc3cnc4ccc(-c5cnc6ccccc6c5)cc4c32)cc1 | 7 µM (active) |
| COc1cccc(-c2cc(F)ccc2[C@H]2Cc3nc(N)nc(C)c3C(=O)N2)n1 | < 0.1 µM (active) |
| COc1cc(N2CCC(N(C)C)CC2)ccc1Nc1ncc(Cl)c(Nc2ccccc2P(C)(C)=O)n1 | 2.6 µM (active) |
| COc1cc(N2CCN(C)CC2)ccc1Nc1nccc(-c2cn(C)c3cnccc23)n1 | 4.4 µM (active) |
| C[C@@H]1CCCN1CCc1cc2cc(-c3ccc(C#N)cc3)ccc2o1 | 6.1 µM (active) |
| CCCc1cc2c(N3CCN(C4=NCC(C)(C)S4)CC3)ncnc2s1 | 13.7 µM (active) |
| O=C(Nc1ccc2[nH]nc(-c3ccncc3)c2c1)[C@@H]1CCN(CC(=O)N2CCN(c3ccc(-c4ncccn4)cc3)CC2)C1 | 0.1 µM (active) |
| CCn1c(=O)c(-c2ccc(Cl)cc2Cl)cc2cnc(Nc3ccc(N4CCNCC4)c(F)c3)nc21 | 1.5 µM (active) |

| SMILES | CC50 |
| --- | --- |
| CCn1c(=O)c(-c2ccc(-c3cncs3)cc2Cl)cc2cnc(Nc3ccc(N4CCN(C)CC4)cc3)nc21 | 29 µM (inactive) |
| CC(C)c1cc2c(N3CCN(C4=NCC(C)(C)S4)CC3)ncnc2s1 | 10 µM (active) |
| Oc1cc(-c2nc(-c3ccccc3)[nH]c2-c2ccncc2)ccc1Cl | 0.6 µM (active) |
| CCn1cc(-c2cccc(C(F)(F)F)c2)c2sc(C(=N)NC3CCS(=O)(=O)CC3)cc2c1=O | 11.1 µM (active) |
| COC(=O)C[C@@H]1N=C(c2ccc(Cl)cc2)c2c(sc(C)c2C)-n2c(C)nnc21 | 0.1 µM (active) |
| Cn1ncc2cc(-c3cnc(N)c(Cl)c3N3CCC4(CCNC4=O)CC3)ccc21 | 5.7 µM (active) |
| COc1cc(-c2nn(CCN3CCC(N(C)C)CC3)c3ncnc(N)c23)ccc1NC(=O)OC(C)(C)C | 2.1 µM (active) |
| CC(C)(O)CNc1ncc(-c2ccnc(Nc3ccnc(Cl)c3)n2)c(CC2CC2)n1 | 4 µM (active) |
| O=C(Nc1cccc(Nc2ncc(Br)c(NCCc3c[nH]cn3)n2)c1)N1CCCC1 | 3.3 µM (active) |
| O=C(NC1(c2ccccc2)CC1)c1c(CN2CCC(N3CCCCC3)CC2)c(-c2cccc(C(F)(F)F)c2)nc2cc(Br)ccc12 | 2.6 µM (active) |
| CCOC(=O)c1cnn(-c2ccc(NC(=O)C(Cl)=C(Cl)Cl)cc2)c1C(F)(F)F | 1 µM (active) |
| COc1cc(N2CCC(N)CC2)ccc1Nc1ncc(Cl)c(-c2c[nH]c3ccccc23)n1 | 4.2 µM (active) |
| Cc1nc(Nc2cnn(C3CCNCC3)c2)nc2c1N(C)C(=O)c1cc3ccccc3cc1N2C | 4.5 µM (active) |
| COCCOc1ccc2c(c1)ncn2-c1ccc2cccc(N3CCC(N)CC3)c2n1 | 8.2 µM (active) |
| CC[S+]([O-])c1nc(-c2cccc(OCc3ccccc3)c2)cc(C(F)(F)F)n1 (stereo not given) | 5.3 µM (active) |
| COCCCN(C(=O)CCl)c1nc(-c2ccc(OC)cc2)cs1 | 1.5 µM (active) |
| CCCc1cc(C)[nH]c(=O)c1CNC(=O)c1cc(-c2ccc(N3CCN(C)CC3)nc2)nc2c1cnn2C(C)C | 7.5 µM (active) |
| COc1ccc(N(C(=O)Nc2c(C)cccc2C)c2cc(Nc3ccc(N4CCN(C)CC4)cc3)ncn2)c(OC)c1 | 6.1 µM (active) |
| CC(C)Oc1cc(Nc2nc(N[C@@H](C)c3ccc(F)cn3)ncc2Cl)n[nH]1 | 2.6 µM (active) |
| Cc1cc(CS(=O)(=O)c2ccccc2)cc(OCc2ccc(CN3CCC[C@@H]3CO)cc2)c1 | 7.9 µM (active) |
| O=C(Nc1ccccc1-c1cn2c(CN3CCNCC3)csc2n1)c1cnc2ccccc2n1 | 1.6 µM (active) |
| CNC(=O)c1c(F)cccc1Nc1nc(Nc2cc3c(cc2OC)CCN3C(=O)CN(C)C)nc2[nH]ccc12 | 3.6 µM (active) |

| SMILES | CC50 |
| --- | --- |
| Cc1ccc2nc(NCCN)c3ncc(C)n3c2c1 | 1.9 µM (active) |
| COc1ccc2c(c1)C(C(=O)N(Cc1ccc(N(C)C)cc1)c1ccc(C(C)C)cc1)CCC2 (stereo not given) | 23.2 µM (inactive) |
| N#Cc1ccc(CNC(=O)CCCCCN2CCN(c3ccccc3-c3ccccc3)CC2)cc1 | 12.3 µM (active) |
| O=C1NCCc2[nH]c(-c3ccncc3)cc21 | 0.9 µM (active) |
| O=C(O)c1ccc2c(c1)nc(Nc1cccc(Cl)c1)c1ccncc12 | 5 µM (active) |
| CC[C@@H](N)CNc1ccnc(-c2cc(-c3cnn(C)c3)ccc2O)n1 | 1.2 µM (active) |
| CN(C)CCN(C)CCc1ccc(Cl)c(Cl)c1 | 15.3 µM (inactive) |
| CC(C)(C)NC(=O)[C@@H]1C[C@@H]2CCCC[C@@H]2CN1CC(O)[C@H](Cc1ccccc1)NC(=O)[C@@H](CC(N)=O)NC(=O)c1ccc2ccccc2n1 (stereo not given in full) | 15.7 µM (inactive) |
| Cc1c(O)cccc1C(=O)NC(CSc1ccccc1)C(O)CN1CC2CCCCC2CC1C(=O)NC(C)(C)C (stereo not given) | 11.3 µM (active) |
| CC(C)c1cnn2c(NCc3ccccc3)cc(NC[C@H]3CCNC[C@@H]3O)nc12 | 0.8 µM (active) |
| CN(C)C[C@@H]1CCn2cc(c3ccccc32)C2=C(C(=O)NC2=O)c2cn(c3ccccc23)CCO1 | 3 µM (active) |
| Cc1c(NC(=O)OC[C@@H]2COCCN2)cn2ncnc(Nc3ccc4c(cnn4Cc4cccc(F)c4)c3)c12 | 9 µM (active) |
| CCCc1ccc(-c2ccc(N(C[C@@H](N)[C@@H](C)CC)C(=O)[C@@H]3C[C@H]3c3ccccn3)cc2)cc1 | 1.6 µM (active) |
| CC(C)N(CCC(=O)c1ccc2ccccc2c1)Cc1ccccc1 | 12.9 µM (active) |
| COc1ccc(-c2cc3nccn3c(Nc3ncccc3C(N)=O)n2)cc1OC | 1.1 µM (active) |
| Cc1ccc([N+](=O)[O-])cc1S(=O)(=O)N(C)/N=C/c1cnc2ccc(Br)cn12 | < 0.1 µM (active) |
| O=C(c1cccs1)c1no[n+]([O-])c1C(=O)c1cccs1 | 1.8 µM (active) |
| Cc1cnc(Nc2ccc(F)cc2Cl)nc1-c1c[nH]c(C(=O)N[C@H](CO)c2cccc(Cl)c2)c1 | 0.7 µM (active) |
| NS(=O)(=O)c1ccc(S(=O)(=O)Nc2cccc3c(Cl)c[nH]c23)cc1 | 13.6 µM (inactive) |
